Like-named read-outs stand apart in the source and are kept apart here.
Columns and labels:
[1] = target: T1, hFADS6 (human FAD synthase isoform 6) (Homo sapiens, UniProt Q8NFF5, D505A); assay: stopped-flow flavin fluorescence, koff/kon; type: binding
T1 construct: gene FLAD1; 320-residue isoform 6, FADSy domain only, lacks N-terminal FADHy domain; monomer
From the text: stopped-flow flavin fluorescence, koff/kon on hFADS6 (human FAD synthase isoform 6) | obtained values are again indicative of the mutant binding FAD slower and weaker than the WT

[2] = target: T2, hFADS6 (human FAD synthase isoform 6) (Homo sapiens, UniProt Q8NFF5); assay: stopped-flow flavin fluorescence, koff/kon; type: binding
T2 construct: gene FLAD1; 320-residue isoform 6, FADSy domain only, lacks N-terminal FADHy domain; monomer

[3] = target: T1, hFADS6 (human FAD synthase isoform 6); assay: biochemical; design: Stopped-flow flavin fluorescence, FAD binding with 250 uM PPi; kon/koff from kobs1 versus flavin concentration, 25 °C, pH 7.0; settings: error at least 30%, with 250 uM PPi
Description: (§1) Pre-steady-state kinetic experiments were performed using stopped-flow spectroscopy on an Applied Photophysics SX17.MV spectrophotometer using the Pro-Data SX software (Applied Photophysics Ltd. Leatherhead, Surrey, UK). The fluorescence of flavins was measured in a continuous assay with an excitation wavelength of 445 nm, while the emission was recovered using a >530 nm cut-off filter and the [compound left out] was set to 350 V. Then, 100 nM hFADS6 samples were mixed with samples that contained increasing concentrations of FMN or FAD (which varied in the range 0.025–1 μM), in the absence and in the presence of saturating concentrations of their respective co-substrates ATP or PPi (250 µM). All the indicated concentrations are final ones in the stopped-flow observation cell. Measurements were carried out at 25 °C in 50 mM HEPES/NaOH, 10 mM MgCl2, pH 7.0, 5 mM β-mercaptoethanol. At least three reproducible kinetic traces of changes in fluorescence were recorded for each condition and fitted to exponential equations (usually one or two exponentials were used) (2) y=∑Aie^−kobs,it where Ai and kobs,i represent the amplitude and the observed rate constant, respectively, for each of the processes (i) that contribute to the overall time-dependent fluorescence change for each experimental condition. […] When similarly evaluating the reverse reaction, kinetic traces for both WT and the D238A mutant show an initial fluorescence exponential decay of small amplitude that is followed by a linear increase of the signal (Figure 8b). We again deduce the kinetics for binding of FAD from the exponential decay, while rates for the subsequent linear fluorescence increase relate well to steady-state kinetic parameters for the transformation of FAD into FMN. Although the small amplitudes for FAD binding make it difficult to accurately determine kobs values, both parameters show a dependence on the substrate concentration (Supplementary Figure S3a,b). […] Normalized kinetic traces for the flavin fluorescence evolution upon mixing the protein with substrates for the (a) forward (ATP + FMN) and (b) reverse (PPi + FAD) reactions. Traces for WT and D238A hFADS are shown in colored grey and red scales as a function of the flavin given concentrations. Normalized signals regarding the fluorescence of the forward reaction at maximum FMN concentration are shown. Kinetic traces were obtained at 25 °C in mixtures containing 100 nM of protein and 250 µM of either ATP (a) or PPi (b) in 50 mM HEPES/NaOH, 10 mM MgCl2, pH 7.0, 5 mM β-mercaptoethanol. All concentrations are final after mixing.

[4] = target: T2, hFADS6 (human FAD synthase isoform 6); assay: biochemical; design: Stopped-flow flavin fluorescence, FAD binding with 250 uM PPi; kon/koff from kobs1 versus flavin concentration, 25 °C, pH 7.0; settings: with 250 uM PPi
Description: as §1

[5] = target: T1, hFADS6 (human FAD synthase isoform 6); assay: biochemical; design: Stopped-flow flavin fluorescence, FMN binding with 250 uM ATP; kon/koff from kobs1 versus flavin concentration, 25 °C, pH 7.0; settings: error at least 30%, with 250 uM ATP
Description: (§2) Pre-steady-state kinetic experiments were performed using stopped-flow spectroscopy on an Applied Photophysics SX17.MV spectrophotometer using the Pro-Data SX software (Applied Photophysics Ltd. Leatherhead, Surrey, UK). The fluorescence of flavins was measured in a continuous assay with an excitation wavelength of 445 nm, while the emission was recovered using a >530 nm cut-off filter and the [compound left out] was set to 350 V. Then, 100 nM hFADS6 samples were mixed with samples that contained increasing concentrations of FMN or FAD (which varied in the range 0.025–1 μM), in the absence and in the presence of saturating concentrations of their respective co-substrates ATP or PPi (250 µM). All the indicated concentrations are final ones in the stopped-flow observation cell. Measurements were carried out at 25 °C in 50 mM HEPES/NaOH, 10 mM MgCl2, pH 7.0, 5 mM β-mercaptoethanol. At least three reproducible kinetic traces of changes in fluorescence were recorded for each condition and fitted to exponential equations (usually one or two exponentials were used) (2) y=∑Aie^−kobs,it where Ai and kobs,i represent the amplitude and the observed rate constant, respectively, for each of the processes (i) that contribute to the overall time-dependent fluorescence change for each experimental condition. […] In mixtures containing substrates of the forward reaction, ATP and FMN, the relevant decrease in the flavin fluorescence is indicative of internalization of the isoalloxazine or FMN transformation into FAD. These observations also agree with ATP binding to the protein prior to FMN in the bi-bi ordered kinetic mechanism reported for hFADSs. Nonetheless, features for this fluorescence decay also differ between WT and D238A hFADSs (Figure 8a). […] The first exponential decay has observed rate constants (kobs1) in the low seconds range which depend linearly on the FMN concentration, while its amplitude is concentration independent (Supplementary Figure S3a,b). kobs2 for the second exponential decay indicate a slower process nearly FMN concentration independent, with amplitude increasing with FMN concentration (Supplementary Figure S3a,b). […] The derived Kd^FMN, 0.094 ± 0.004 µM, agrees well with the above derived Km^FMN for WT hFADS6. […] Finally, the continuous and linear flavin fluorescence decay established after the exponential processes fits well with the settlement of the catalytic steady-state transformation of FMN into FAD, showing, in addition, rates in the ranges of Vmax and kcat. […] Nonetheless, fluorescence decay related to FMN transformation into FAD follows similar traits to the WT ones (Fig  Figure 8 Dissection of the kinetics of the substrates binding process from the catalytic reaction by stopped-flow spectrophotometry. Normalized kinetic traces for the flavin fluorescence evolution upon mixing the protein with substrates for the (a) forward (ATP + FMN) and (b) reverse (PPi + FAD) reactions. Traces for WT and D238A hFADS are shown in colored grey and red scales as a function of the flavin given concentrations. Normalized signals regarding the fluorescence of the forward reaction at maximum FMN concentration are shown. Kinetic traces were obtained at 25 °C in mixtures containing 100 nM of protein and 250 µM of either ATP (a) or PPi (b) in 50 mM HEPES/NaOH, 10 mM MgCl2, pH 7.0, 5 mM β-mercaptoethanol. All concentrations are final after mixing.

[6] = target: T2, hFADS6 (human FAD synthase isoform 6); assay: biochemical; design: Stopped-flow flavin fluorescence, FMN binding with 250 uM ATP; kon/koff from kobs1 versus flavin concentration, 25 °C, pH 7.0; settings: with 250 uM ATP
Description: as §2

[7] = target: T1, hFADS6 (human FAD synthase isoform 6); assay: inhibition of FADS activity; type: biochemical; settings: inhibitor

T1 sequence (Q8NFF5 268-587 D505A): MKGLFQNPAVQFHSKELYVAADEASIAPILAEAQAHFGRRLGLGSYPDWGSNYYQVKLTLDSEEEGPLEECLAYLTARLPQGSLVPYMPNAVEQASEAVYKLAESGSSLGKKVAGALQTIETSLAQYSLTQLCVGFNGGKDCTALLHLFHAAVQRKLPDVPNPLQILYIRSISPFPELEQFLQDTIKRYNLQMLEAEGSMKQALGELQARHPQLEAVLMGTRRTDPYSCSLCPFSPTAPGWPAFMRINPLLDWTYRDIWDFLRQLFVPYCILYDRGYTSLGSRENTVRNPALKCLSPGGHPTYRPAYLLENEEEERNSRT
T2 sequence (Q8NFF5 268-587): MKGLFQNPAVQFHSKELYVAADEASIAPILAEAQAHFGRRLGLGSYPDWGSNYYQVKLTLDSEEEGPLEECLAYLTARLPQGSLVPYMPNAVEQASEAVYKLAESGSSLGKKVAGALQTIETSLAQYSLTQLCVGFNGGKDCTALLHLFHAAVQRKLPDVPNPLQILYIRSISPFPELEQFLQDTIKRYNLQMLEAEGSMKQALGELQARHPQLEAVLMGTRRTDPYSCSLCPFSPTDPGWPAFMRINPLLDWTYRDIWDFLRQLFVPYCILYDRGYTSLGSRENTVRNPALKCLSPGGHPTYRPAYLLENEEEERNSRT

Structure (SMILES): Cc1cc2nc3c(=O)[nH]c(=O)nc-3n(C[C@H](O)[C@H](O)[C@H](O)COP(=O)(O)OP(=O)(O)OC[C@H]3O[C@@H](n4cnc5c(N)ncnc54)[C@H](O)[C@@H]3O)c2cc1C [FAD]
- Kd [1]: > 300 nM
- Kd ([2]; read-out: Kd): 180 ± 40 nM
- koff ([3]; read-out: koff (FAD binding)): 0.35 s⁻¹
- kon ([3]; read-out: kon (FAD binding)): 1.5e+06 M⁻¹ s⁻¹
- koff ([4]; read-out: koff (FAD binding)): 0.81 ± 0.05 s⁻¹
- kon ([4]; read-out: kon (FAD binding)): 4.5e+06 ± 600000 M⁻¹ s⁻¹

Structure (SMILES): Cc1cc2nc3c(=O)[nH]c(=O)nc-3n(C[C@H](O)[C@H](O)[C@H](O)COP(=O)(O)O)c2cc1C [FMN]
- Kd ([2]; read-out: Kd^FMN): 94 ± 4 nM
- Kd ([5]; koff/kon, read-out: Kd FMN): > 180 nM
- koff ([5]; read-out: koff (FMN binding)): 0.09 s⁻¹
- kon ([5]; read-out: kon (FMN binding)): 550000 M⁻¹ s⁻¹
- koff ([6]; read-out: koff (FMN binding)): 0.32 ± 0.01 s⁻¹
- kon ([6]; read-out: kon (FMN binding)): 3.4e+06 ± 100000 M⁻¹ s⁻¹

Structure (SMILES): NC(=O)C1=CN([C@@H]2O[C@H](COP(=O)(O)OP(=O)(O)OC[C@H]3O[C@@H](n4cnc5c(N)ncnc54)[C@H](O)[C@@H]3O)[C@@H](O)[C@H]2O)C=CC1 [NADH]
- inhibition of FADS activity [7]: The D238A-hFADS6 was inhibited by GTP and by NADH

Structure (SMILES): Nc1nc2c(ncn2[C@@H]2O[C@H](COP(=O)(O)OP(=O)(O)OP(=O)(O)O)[C@@H](O)[C@H]2O)c(=O)[nH]1 [GTP]
- inhibition of FADS activity [7]: The D238A-hFADS6 was inhibited by GTP and by NADH
